Experimental data published in ChEMBL document CHEMBL4725399, “Galangin ameliorated pulmonary fibrosis in vivo and in vitro by regulating epithelial-mesenchymal transition” (Bioorg Med Chem, 2020).
Calls of active or inactive are those of the source.

Assays:
A549 [1] = assay: Down regulation of vimentin protein expression in human A549 cells at 50 uM by Western blotting analysis; assay type: functional, cell-based; details: time 24.0 hrs
Mus musculus [2] = assay: Antifibrotic activity in C57BL/6 mouse model of bleomycin-induced lung fibrosis assessed as inhibition of pathological changes by measuring collagen deposition in lung tissue at 25 to 50 mg/kg dosed via oral gavage for 14 days by H and E staining-based histopathological analysis; assay type: functional, organism-based; details: dose mg/kg 25-50, time 14.0 day
Mus musculus [3] = assay: Antifibrotic activity in C57BL/6 mouse model of bleomycin-induced lung fibrosis assessed as reduction in CD8+CD69+ T-cells at 50 mg/kg dosed via oral gavage for 14 days by flow cytometry analysis; assay type: functional, organism-based; details: time 14.0 day
A549 [4] = assay: Down regulation of alpha-SMA protein expression in human A549 cells at 50 uM by Western blotting analysis; assay type: functional, cell-based; details: time 24.0 hrs
Mus musculus [5] = assay: Antifibrotic activity in bleomycin-induced C57BL/6 mouse model of lung fibrosis assessed as reduction in fibroblast differentiation by measuring alpha-SMA at 25 to 50 mg/kg dosed via oral gavage for 14 days by measuring reduction in alpha-SMA protein expression by immunohistochemical analysis; assay type: functional, organism-based; details: dose mg/kg 25-50, time 14.0 day
Mus musculus [6] = assay: Antifibrotic activity in C57BL/6 mouse model of bleomycin-induced lung fibrosis assessed as reduction in CD4+CD69+ T-cells at 50 mg/kg dosed via oral gavage for 14 days by flow cytometry analysis; assay type: functional, organism-based; details: time 14.0 day
Mus musculus [7] = assay: Antifibrotic activity in bleomycin-induced C57BL/6 mouse model of lung fibrosis assessed as reduction in Ashcroft score at 25 to 50 mg/kg dosed via oral gavage for 14 days by H and E and Masson's trichrome staining based histopathological analysis; assay type: functional, organism-based; details: dose mg/kg 25-50, time 14.0 day
NIH3T3 [8] = assay: Antifibrotic activity in mouse NIH3T3 cells assessed as up regulation of TGF-beta1 inhibited E-cadherin protein expression at 40 uM after 24 hrs by Western blotting analysis; assay type: functional, cell-based
Mus musculus [9] = assay: Antifibrotic activity in C57BL/6 mouse model of bleomycin-induced lung fibrosis assessed as reduction in weight loss at 50 mg/kg dosed via oral gavage and measured for 7 to 14 days; assay type: functional, organism-based; details: time day 7-14
A549 [10] = assay: Inhibition of cell migration in TGF-beta-stimulated human A549 cells at 50 uM after 24 hrs by optical microscopic based wound healing assay; assay type: functional
Mus musculus [11] = assay: Antifibrotic activity in C57BL/6 mouse model of bleomycin-induced lung fibrosis assessed as inhibition of pathological changes by measuring inflammatory infiltration in lung tissue at 25 to 50 mg/kg dosed via oral gavage for 14 days by Masson's trichrome staining-based histopathological analysis; assay type: functional, organism-based; details: dose mg/kg 25-50, time 14.0 day
Mus musculus [12] = assay: Antifibrotic activity in C57BL/6 mouse model of bleomycin-induced lung fibrosis assessed as inhibition of pathological changes by measuring collagen deposition in lung tissue at 25 to 50 mg/kg dosed via oral gavage for 14 days by Masson's trichrome staining-based histopathological analysis; assay type: functional, organism-based; details: dose mg/kg 25-50, time 14.0 day
Mus musculus [13] = assay: Antifibrotic activity in C57BL/6 mouse model of bleomycin-induced lung fibrosis assessed as reduction in dendritic cells at 25 mg/kg dosed via oral gavage for 14 days by flow cytometry analysis; assay type: functional, organism-based; details: time 14.0 day
Mus musculus [14] = assay: Antifibrotic activity in po dosed C57BL/6 mouse model of bleomycin-induced lung fibrosis assessed as reduction in weight loss after 7 to 14 days; assay type: functional, organism-based; details: dose mg/kg 25-50, time day 7-14
Mus musculus [15] = assay: Antifibrotic activity in C57BL/6 mouse model of bleomycin-induced lung fibrosis assessed as reduction in weight loss at 25 mg/kg dosed via oral gavage and measured for 7 to 14 days; assay type: functional, organism-based; details: time day 7-14
A549 [16] = assay: Up regulation of E-cadherin level in TGF-beta-stimulated human A549 cells at 50 uM by Western blot analysis; assay type: functional, cell-based; details: time 24.0 hrs
Mus musculus [17] = assay: Inhibition of epithelial-mesenchymal transition in C57BL/6 mouse model of bleomycin-induced lung fibrosis assessed as increase in E-cadherin protein expression in lung tissue at 25 to 50 mg/kg dosed via oral gavage for 14 days by Western blotting analysis; assay type: functional, organism-based; details: dose mg/kg 25-50, time 14.0 day
NIH3T3 [18] = assay: Antifibrotic activity in mouse NIH3T3 cells assessed as decrease in TGF-beta1 induced alpha-SMA protein expression at 40 uM after 24 hrs by Western blotting analysis; assay type: functional, cell-based
Mus musculus [19] = assay: Antifibrotic activity in C57BL/6 mouse model of bleomycin-induced lung fibrosis assessed as reduction in CD4+CD69+ T-cells at 25 mg/kg dosed via oral gavage for 14 days by flow cytometry analysis; assay type: functional, organism-based; details: dose 25.0 […], time 14.0 day
Mus musculus [20] = assay: Antifibrotic activity in C57BL/6 mouse model of bleomycin-induced lung fibrosis assessed as reduction in dendritic cells at 50 mg/kg dosed via oral gavage for 14 days by flow cytometry analysis; assay type: functional, organism-based; details: time 14.0 day
Mus musculus [21] = assay: Inhibition of epithelial-mesenchymal transition in C57BL/6 mouse model of bleomycin-induced lung fibrosis assessed as decrease in vimentin protein expression in lung tissue at 25 to 50 mg/kg dosed via oral gavage for 14 days by Western blotting analysis; assay type: functional, organism-based; details: dose mg/kg 25-50, time 14.0 day
Mus musculus [22] = assay: Antifibrotic activity in C57BL/6 mouse model of bleomycin-induced lung fibrosis assessed as inhibition of pathological changes by measuring inflammatory infiltration in lung tissue at 25 to 50 mg/kg dosed via oral gavage for 14 days by H and E staining-based histopathological analysis; assay type: functional, organism-based; details: dose mg/kg 25-50, time 14.0 day
NIH3T3 [23] = assay: Antifibrotic activity in mouse NIH3T3 cells assessed as decrease in TGF-beta1 induced MMP-9 protein expression at 40 uM after 24 hrs by Western blotting analysis; assay type: functional, cell-based
Mus musculus [24] = assay: Antifibrotic activity in C57BL/6 mouse model of bleomycin-induced lung fibrosis assessed as reduction in CD8+CD69+ T-cells at 25 mg/kg dosed via oral gavage for 14 days by flow cytometry analysis; assay type: functional, organism-based; details: time 14.0 day
Mus musculus [25] = assay: Inhibition of epithelial-mesenchymal transition in C57BL/6 mouse model of bleomycin-induced lung fibrosis assessed as decrease in alpha-SMA protein expression in lung tissue at 25 to 50 mg/kg dosed via oral gavage for 14 days by Western blotting analysis; assay type: functional, organism-based; details: dose mg/kg 25-50, time 14.0 day
A549 [26] = assay: Antimigratory activity in human A549 cells assessed as inhibition of TGF-beta1 induced epithelial-mesenchymal transition at 50 uM pretreated with TGF-beta1 for 1 hr followed by compound addition and measured after 24 hrs by scratch wound healing based microscopic analysis; assay type: functional, cell-based
NIH3T3 [27] = assay: Cytotoxicity against mouse NIH3T3 cells assessed as reduction in cell viability after 24 to 72 hrs by MTT assay; assay type: cell-based; details: time 24-72 hrs
NIH3T3 [28] = assay: Antifibrotic activity in mouse NIH3T3 cells assessed as reduction in TGF-beta1 induced myofibroblast differentiation by measuring reduction in alpha-SMA protein expression at 40 uM after 24 hrs by immunofluorescence staining analysis; assay type: functional, cell-based
A549 [29] = assay: Cytotoxicity against human A549 cells assessed as reduction in cell viability after 24 to 72 hrs by MTT assay; assay type: functional, cell-based; details: time hrs 24-72

O=c1c(O)c(-c2ccccc2)oc2cc(O)cc(O)c12 [GALANGIN]
inactive: Activity (Mus musculus [13]) | Activity (Mus musculus [15]) | Activity (Mus musculus [19]) | Activity (Mus musculus [24])
active: Activity (A549 [1]) | Activity (Mus musculus [2]) | Activity (Mus musculus [3]) | Activity (A549 [4]) | Activity (Mus musculus [5]) | Activity (Mus musculus [6]) | Activity (Mus musculus [7]) | Activity (NIH3T3 [8]) | Activity (Mus musculus [9]) | inhibition (A549 [10]) | Activity (Mus musculus [11]) | Activity (Mus musculus [12]) | Activity (Mus musculus [14]) Dose-dependent effect | Activity (A549 [16]) | Activity (Mus musculus [17]) | Activity (NIH3T3 [18]) | Activity (Mus musculus [20]) | Activity (Mus musculus [21]) | Activity (Mus musculus [22]) | Activity (NIH3T3 [23]) | Activity (Mus musculus [25]) | Activity (A549 [26]) | Activity (NIH3T3 [28]) | Activity (A549 [29])
Toxic: Activity (NIH3T3 [27])
